Counter-ions that a name gives are not always drawn.

Assay [1] has as its system Maus. Put plainly: Writhing test according to Huntingdon (analgesia). Format: in vivo. Particulars: Mus musculus, oral. As for the experimental part:
(§1) Sobewirkt z.B. das Hydrochlorid von 2,2-Dimethyl-4- (2' hydroxy-3'-tert.butylaminopropoxy)-1,3-benzodioxol am wachen Hund eine 40-fach intensivere Abschwächung der positiv chronotropen Isoprenalinwirkung als der bekannte B-Blocker Atenolol in gleicher Dosierung und ergibt im Writhing-Test nach Huntingdon mit einer ED 50 von nur 8 mg/kg (Maus, oral) eine gute analgetische Wirkung. Vergleicht man diese im Writhina-Test mit der von bekannten Analgetika, dann zeigt sich die Überlegenheit des neuen Wirkstoffes: […]
For orientation: An intraperitoneal irritant provokes the stretching counted in writhing tests.

Assay [2] relates to ß-Adrenozeptor. The assay can be described thus: Attenuation of the positive chronotropic effect of isoprenaline in the conscious dog. Type of assay: in vivo, Hund. Particulars: intensity relative to the known ß-blocker Atenolol at the same dose. As for the experimental part:
as §1

`NC(=O)c1ccccc1OCC(=O)O` [Natriumsalz der Salicylamid-O-essigsäure] had an ED50 in assay [1] of 11.5 mg/kg.

In assay [1], `Cc1c(N(C)CS(=O)(=O)O)c(=O)n(-c2ccccc2)n1C` [Metamizol-Natrium] came in with an ED50 of 10.6 mg/kg.

For `CC(C)(C)NCC(O)COc1cccc2c1OC(C)(C)O2` (centres unmarked) [2,2-Dimethyl-4-(2'-hydroxy-3'-tert.butylamino--propoxy)-1,3-benzodioxol], the “Abschwächung der positiv chronotropen Isoprenalinwirkung” value in assay [2] was 40 -fach. In assay [1], this compound had an ED50 of 8 mg/kg.

In assay [1], `CCOC(=O)C1(c2ccccc2)CCN(C)CC1` [Pethidin-Hydrochlorid] gave an ED50 of 13.3 mg/kg.

In general, ED50 refers to the dose at which the effect has come halfway, by size or by number of responders. Low values mean an effect at a small dose, high ones a need for a large dose.

The values are drawn from patent EP0095454A2, “Nuclens-substituted pyrogallol derivatives” (Gerot-Pharmazeutika Gesellschaft m.b.H., priority 1982, dated 1983).
